Patent US11111251B2, “Positive allosteric modulators of the muscarinic acetylcholine receptor M1” (Vanderbilt University, priority 2016, dated 2021)
pEC50: −log10 of the molar value. Like-named read-outs stand apart in the source and are kept apart here.

Target: T1, human mAChR M1 (Homo sapiens, UniProt P11229)
T1 sequence (P11229 1-460): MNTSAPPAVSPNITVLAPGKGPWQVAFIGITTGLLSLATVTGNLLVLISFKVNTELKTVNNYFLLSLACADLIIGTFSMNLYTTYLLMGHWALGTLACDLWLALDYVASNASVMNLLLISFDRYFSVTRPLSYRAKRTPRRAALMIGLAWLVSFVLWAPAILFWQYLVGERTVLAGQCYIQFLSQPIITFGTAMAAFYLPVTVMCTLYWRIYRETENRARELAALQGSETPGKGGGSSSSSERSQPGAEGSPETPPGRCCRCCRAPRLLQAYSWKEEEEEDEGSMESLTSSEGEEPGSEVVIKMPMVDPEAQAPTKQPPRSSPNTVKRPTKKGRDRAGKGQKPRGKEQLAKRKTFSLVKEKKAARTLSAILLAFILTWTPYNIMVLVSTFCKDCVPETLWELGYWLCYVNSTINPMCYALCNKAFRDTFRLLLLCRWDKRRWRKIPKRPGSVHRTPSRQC
Assay: mAChR M1 cell-based functional assay: calcium mobilization, positive allosteric modulator mode (increase in EC20 acetylcholine response)
Details: for pEC50: read-out: Human M1 EC50; for Emax: read-out: Human M1 Emax (%)
Summary of the method: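 PAM potency reflects the concentration-dependent increase in calcium response to an EC20 acetylcholine challenge, given 144 s into a 300 s read after compound addition at 4 s (EC80 follows at 230 s). Cells were hM1-expressing CHO-K1, loaded 50 min with Fluo-4 AM. Curves used 11 points at 1:3 dilutions and four-parameter logistic fitting.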

Row | pEC50 (Table 2, human M1) | Emax (Table 2, human M1) [%] | Compound | Emax [%]
1 | 6.00 | 71.9 | Cn1ccc2nc(C(=O)N[C@@H]3CCCOC3)cc(Cc3ccc(-c4cscn4)cc3)c21 [Compound 463, 1-methyl-N-[(3R)-tetrahydropyran-3-yl]-7-[(4-thiazol-4-ylphenyl)methyl]pyrrolo[3,2-b]pyridine-5-carboxamide] | –
2 | 5.73 | 71.2 | Cn1ccc2nc(C(=O)N[C@H]3CCOC3)cc(Cc3ccc(-c4cscn4)cc3)c21 [Compound 464, 1-methyl-N-[(3S)-tetrahydrofuran-3-yl]-7-[(4-thiazol-4-ylphenyl)methyl]pyrrolo[3,2-b]pyridine-5-carboxamide] | –
3 | 5.73 | 72 | Cn1ccc2nc(C(=O)N[C@@H]3CCOC3)cc(Cc3ccc(-c4cscn4)cc3)c21 [Compound 465, 1-methyl-N-[(3R)-tetrahydrofuran-3-yl]-7-[(4-thiazol-4-ylphenyl)methyl]pyrrolo[3,2-b]pyridine-5-carboxamide] | –
4 | 6.44 | 72.2 | Cn1ccc2nc(C(=O)NCC3CCOCC3)cc(Cc3ccc(-c4cscn4)cc3)c21 [Compound 466, 1-methyl-N-(tetrahydropyran-4-ylmethyl)-7-[(4-thiazol-4-ylphenyl)methyl]pyrrolo[3,2-b]pyridine-5-carboxamide] | –
5 | 5.53 | 61.2 | Cn1ccc2nc(C(=O)NC3COC3)cc(Cc3ccc(-c4cscn4)cc3)c21 [Compound 467, 1-methyl-N-(oxetan-3-yl)-7-[(4-thiazol-4-ylphenyl)methyl]pyrrolo[3,2-b]pyridine-5-carboxamide] | –
6 | 7.93 | 70 | Cn1cc(-c2ccc(Cc3cc(C(=O)N[C@H]4CCOC[C@@H]4O)nc4ccn(C)c34)cn2)cn1 [Compound 468, N-[(3R,4S)-3-hydroxytetrahydropyran-4-yl]-1-methyl-7-[[6-(1-methylpyrazol-4-yl)-3-pyridyl]methyl]pyrrolo[3,2-b]pyridine-5-carboxamide] | –
7 | 7.53 | 72.3 | Cn1cc(-c2ccc(Cc3cc(C(=O)N[C@H]4CCCC[C@@H]4O)nc4ccn(C)c34)cn2)cn1 [Compound 469, N-[(1S,2S)-2-hydroxycyclohexyl]-1-methyl-7-[[6-(1-methylpyrazol-4-yl)-3-pyridyl]methyl]pyrrolo[3,2-b]pyridine-5-carboxamide] | –
8 | 6.65 | 86 | Cn1cc(-c2ccc(Cc3cc(C(=O)NC4CCOCC4)nc4ccn(C)c34)cn2)cn1 [Compound 470, 1-methyl-7-[[6-(1-methylpyrazol-4-yl)-3-pyridyl]methyl]-N-tetrahydropyran-4-yl-pyrrolo[3,2-b]pyridine-5-carboxamide] | –
9 | 6.41 | 85.4 | Cn1cc(-c2ccc(Cc3cc(C(=O)NC4CC5(COC5)C4)nc4ccn(C)c34)cn2)cn1 [Compound 471, 1-methyl-7-[[6-(1-methylpyrazol-4-yl)-3-pyridyl]methyl]-N-(2-oxaspiro[3.3]heptan-6-yl)pyrrolo[3,2-b]pyridine-5-carboxamide] | –
10 | 6.37 | 85.6 | Cn1cc(-c2ccc(Cc3cc(C(=O)NC4CCOC(C)(C)C4)nc4ccn(C)c34)cn2)cn1 (centres unmarked) [Compound 472, N-(2,2-dimethyltetrahydropyran-4-yl)-1-methyl-7-[[6-(1-methylpyrazol-4-yl)-3-pyridyl]methyl]pyrrolo[3,2-b]pyridine-5-carboxamide] | –
11 | 6.97 | 85.8 | Cn1ccc(-c2ccc(Cc3cc(C(=O)NC4CCOCC4)nc4ccn(C)c34)cc2)n1 [Compound 473, 1-methyl-7-[[4-(1-methylpyrazol-3-yl)phenyl]methyl]-N-tetrahydropyran-4-yl-pyrrolo[3,2-b]pyridine-5-carboxamide] | –
12 | 8.19 | 70.4 | Cn1ccc(-c2ccc(Cc3cc(C(=O)N[C@H]4CCOC[C@@H]4O)nc4ccn(C)c34)cc2)n1 [Compound 474, N-[(3R,4S)-3-hydroxytetrahydropyran-4-yl]-1-methyl-7-[[4-(1-methylpyrazol-3-yl)phenyl]methyl]pyrrolo[3,2-b]pyridine-5-carboxamide] | –
13 | 6.74 | 83.5 | Cn1ccc(-c2ccc(Cc3cc(C(=O)NC4CC5(COC5)C4)nc4ccn(C)c34)cc2)n1 [Compound 475, 1-methyl-7-[[4-(1-methylpyrazol-3-yl)phenyl]methyl]-N-(2-oxaspiro[3.3]heptan-6-yl)pyrrolo[3,2-b]pyridine-5-carboxamide] | –
14 | 6.55 | 83.5 | Cn1ccc(-c2ccc(Cc3cc(C(=O)NCC4CCOCC4)nc4ccn(C)c34)cc2)n1 [Compound 476, 1-methyl-7-[[4-(1-methylpyrazol-3-yl)phenyl]methyl]-N-(tetrahydropyran-4-ylmethyl)pyrrolo[3,2-b]pyridine-5-carboxamide] | –
15 | 6.70 | 86.4 | Cn1ccc(-c2ccc(Cc3cc(C(=O)NC4CCOCC4(C)C)nc4ccn(C)c34)cc2)n1 (centres unmarked) [Compound 477, N-(3,3-dimethyltetrahydropyran-4-yl)-1-methyl-7-[[4-(1-methylpyrazol-3-yl)phenyl]methyl]pyrrolo[3,2-b]pyridine-5-carboxamide] | –
16 | 8.20 | 53.2 | Cn1ccc2nc(C(=O)N[C@H]3CCOC[C@@H]3O)cc(Cc3ccc(-c4nccs4)cc3)c21 [Compound 478, N-[(3R,4S)-3-hydroxytetrahydropyran-4-yl]-1-methyl-7-[(4-thiazol-2-ylphenyl)methyl]pyrrolo[3,2-b]pyridine-5-carboxamide] | –
17 | 7.39 | 52.5 | Cn1ccc2nc(C(=O)N[C@H]3CCCC[C@@H]3O)cc(Cc3ccc(-c4nccs4)cc3)c21 [Compound 479, N-[(1S,2S)-2-hydroxycyclohexyl]-1-methyl-7-[(4-thiazol-2-ylphenyl)methyl]pyrrolo[3,2-b]pyridine-5-carboxamide] | –
18 | 6.44 | 57.2 | Cn1ccc2nc(C(=O)NC3CCOCC3)cc(Cc3ccc(-c4nccs4)cc3)c21 [Compound 480, 1-methyl-N-tetrahydropyran-4-yl-7-[(4-thiazol-2-ylphenyl)methyl]pyrrolo[3,2-b]pyridine-5-carboxamide] | –
19 | 6.41 | 57 | Cn1ccc2nc(C(=O)NC3CC4(COC4)C3)cc(Cc3ccc(-c4nccs4)cc3)c21 [Compound 481, 1-methyl-N-(2-oxaspiro[3.3]heptan-6-yl)-7-[(4-thiazol-2-ylphenyl)methyl]pyrrolo[3,2-b]pyridine-5-carboxamide] | –
20 | 6.77 | 61.2 | Cn1ccc2nc(C(=O)N[C@H]3CC[C@@H]3O)cc(Cc3ccc(-c4nccs4)cc3)c21 [Compound 482, N-[(1S,2S)-2-hydroxycyclobutyl]-1-methyl-7-[(4-thiazol-2-ylphenyl)methyl]pyrrolo[3,2-b]pyridine-5-carboxamide] | –
21 | 7.19 | 58.6 | Cn1ccc2nc(C(=O)N[C@H]3CCC[C@@H]3O)cc(Cc3ccc(-c4nccs4)cc3)c21 [Compound 483, N-[(1S,2S)-2-hydroxycyclopentyl]-1-methyl-7-[(4-thiazol-2-ylphenyl)methyl]pyrrolo[3,2-b]pyridine-5-carboxamide] | –
22 | 6.32 | 37.5 | Cn1ccc2nc(C(=O)NCC3CCOCC3)cc(Cc3ccc(-c4nccs4)cc3)c21 [Compound 486, 1-methyl-N-(tetrahydropyran-4-ylmethyl)-7-[(4-thiazol-2-ylphenyl)methyl]pyrrolo[3,2-b]pyridine-5-carboxamide] | –
23 | 6.09 | 25.5 | Cn1ccc2nc(C(=O)NC3CC(F)(F)C3)cc(Cc3ccc(-c4nccs4)cc3)c21 [Compound 487, N-(3,3-difluorocyclobutyl)-1-methyl-7-[(4-thiazol-2-ylphenyl)methyl]pyrrolo[3,2-b]pyridine-5-carboxamide] | –
24 | 5.94 | 37.5 | Cn1ccc2nc(C(=O)NC3CC(F)C3)cc(Cc3ccc(-c4nccs4)cc3)c21 (centres unmarked) [Compound 488, N-(3-fluorocyclobutyl)-1-methyl-7-[(4-thiazol-2-ylphenyl)methyl]pyrrolo[3,2-b]pyridine-5-carboxamide] | –
25 | 5.56 | 52 | Cn1ncc2nc(C(=O)NC3CC4(COC4)C3)cc(Cc3ccc(-c4cscn4)cc3)c21 [Compound 489, 1-Methyl-N-(2-oxaspiro[3.3]heptan-6-yl)-7-[(4-thiazol-4-ylphenyl)methyl]pyrazolo[4,3-b]pyridine-5-carboxamide] | –
26 | < 5.00 | 61.9 | Cn1ncc2nc(C(=O)N[C@@H]3CC[C@H]3O)cc(Cc3ccc(-c4cscn4)cc3)c21 [Compound 490, N-[(1R,2R)-2-hydroxycyclobutyl]-1-methyl-7-[(4-thiazol-4-ylphenyl)methyl]pyrazolo-[4,3-b]pyridine-5-carboxamide] | –

Row | Compound | pEC50 (Table 2, human M1) | Emax (Table 2, human M1) [%] | Emax [%]
27 | Cn1ccc2nc(C(=O)NC3CCOC(C)(C)C3)cc(Cc3ccc(-c4nccs4)cc3)c21 (centres unmarked) [Compound 484, N-(2,2-dimethyltetrahydropyran-4-yl)-1-methyl-7-[(4-thiazol-2-ylphenyl)methyl]pyrrolo[3,2-b]pyridine-5-carboxamide] | 6.15 | – | 47.2
28 | Cn1ccc2nc(C(=O)NC3CCOCC3(C)C)cc(Cc3ccc(-c4nccs4)cc3)c21 (centres unmarked) [Compound 485, N-(3,3-dimethyltetrahydropyran-4-yl)-1-methyl-7-[(4-thiazol-2-ylphenyl)methyl]pyrrolo[3,2-b]pyridine-5-carboxamide] | 6.18 | – | 61.6
